Measured values from patent US6376497B1, “Antifungal azole derivatives having a fluorinated vinyl group and process for preparing same” (Korea Research Institute of Chemical Technology, priority 1999, dated 2002).
≈ marks a conversion by molar mass, not a printed value.

How the values were obtained:
Assay in all cases: In vitro antifungal activity, microbroth dilution MIC
Assay type in all cases: cell-based
[1] = test system: Aspergillus niger A. 16404; conditions: 4 to 48 hours; for Minimal inhibitory concentration (MIC): A. niger A. 16404, RPMI-1640, 35° C.; for Minimal inhibitory concentration(MIC), A. niger A. 16404: RPMI-1640, 35° C., no growth observed
Experimental: (§1) In vitro antifungal activities of the inventive antifungal compounds were evaluated using the test strains shown in Table VIII by the following microbroth dilution method which is a modified version of the procedure recommended by National Committee for Clinical Laboratory Standards(see National Committee for Clinical Laboratory Standards, 1992, Reference methods for broth dilution antifungal susceptibility testing of yeasts, Proposed standard M27-P, National Committee for clinical laboratory standards, Villanova, Pa; and National Committee for Clinical Laboratory Standards, 1995, Reference methods for broth dilution antifungal susceptibility testing of yeasts. Tentative standard M27-T, National Committee for clinical laboratory standards, Villanova, Pa).
(§2) Sabourad Dextrose Agar(Difco) was used as a culture medium, and RPMI-1640 broth(Sigma. Co. w/L-glutamine, wo/NaHCO3)(0.165 M MOPS, pH 7.0), as a dilution medium.
(§3) Each of the test strains were subcultured in Sabourad Dextrose Agar medium twice and a stain sample was taken from prominent colonies and suspended in sterile physiological saline solution in a cap tube. The turbidity of the suspension was adjusted to that of the Mcfarland 0.5 standard sample(approximately 10^6 CFU/ml). Then the suspension was diluted 500-fold with sterile RPMI-1640 liquid medium to 2×10^3 CFU/ml.
(§4) Each of the test compounds(the compounds obtained in Examples 1 to 150 and comparative compounds, i.e., fluconazole(FCZ) and itraconazole (ICZ)), was dissolved in DMSO to give a stock solution having a concentration of 4000 μg/ml and the stock solution was successively diluted to obtain test solutions having test compound concentrations of 200, 100, 50, 25, 12.5, 6.25, 3.13, 1.56, 0.78, 0.39, 0.20 and 0.10 μg/ml, respectively.
(§5) 0.1 ml portion of the test solutions were added to the wells of a sterile 96 well plate. Then, 0.1 ml portion of each of the test strain solutions were added successively to the wells and the plate was incubated at 35° C. for 4 to 48 hours.
(§6) Minimal inhibitory concentration(MIC) of each compound was defined as the concentration of the test compound where no growth of the strain could be observed.

[2] = test system: Candida pseudotropicalis K. 11658; conditions: 4 to 48 hours; for Minimal inhibitory concentration (MIC): C. pseudotropicalis K. 11658, RPMI-1640, 35° C.; for Minimal inhibitory concentration(MIC), C. pseudotropicalis K. 11658: RPMI-1640, 35° C., no growth observed
Experimental: as §1, §2, §3, §4, §5, §6

[3] = test system: Candida albicans A. 10231; conditions: 4 to 48 hours; for Minimal inhibitory concentration (MIC): C. albicans A. 10231, RPMI-1640, 35° C.; for Minimal inhibitory concentration(MIC), C. albicans A. 10231: RPMI-1640, 35° C., no growth observed
Experimental: as §1, §2, §3, §4, §5, §6

[4] = test system: Aspergillus furnigatus B. 19119; conditions: 4 to 48 hours; for Minimal inhibitory concentration (MIC): A furnigatus B. 19119, RPMI-1640, 35° C.; for Minimal inhibitory concentration(MIC), A furnigatus B. 19119: RPMI-1640, 35° C., no growth observed
Experimental: as §1, §2, §3, §4, §5, §6

[5] = test system: Candida albicans IFO. 1385; conditions: 4 to 48 hours; for Minimal inhibitory concentration (MIC): C. albicans IFO. 1385, RPMI-1640, 35° C.; for Minimal inhibitory concentration(MIC), C. albicans IFO. 1385: RPMI-1640, 35° C., no growth observed
Experimental: as §1, §2, §3, §4, §5, §6

[6] = test system: Cryptococcus neoformans A. 34144; conditions: 4 to 48 hours; for Minimal inhibitory concentration (MIC): Cry. neoformans A. 34144, RPMI-1640, 35° C.; for Minimal inhibitory concentration(MIC), Cry. neoformans A. 34144: RPMI-1640, 35° C., no growth observed
Experimental: as §1, §2, §3, §4, §5, §6

[7] = test system: Trichophyton mentagrophytes B. 32663; conditions: 4 to 48 hours; for Minimal inhibitory concentration (MIC): T. mentagrophytes B. 32663, RPMI-1640, 35° C.; for Minimal inhibitory concentration(MIC), T. mentagrophytes B. 32663: RPMI-1640, 35° C., no growth observed
Experimental: as §1, §2, §3, §4, §5, §6

[8] = test system: Trichophyton mentagrophytes A. 9129; conditions: 4 to 48 hours; for Minimal inhibitory concentration (MIC): T. mentagrophytes A. 9129, RPMI-1640, 35° C.; for Minimal inhibitory concentration(MIC), T. mentagrophytes A. 9129: RPMI-1640, 35° C., no growth observed
Experimental: as §1, §2, §3, §4, §5, §6

[9] = test system: Candida parapsitosis A. 7330; conditions: 4 to 48 hours; for Minimal inhibitory concentration (MIC): C. parapsitosis A. 7330, RPMI-1640, 35° C.; for Minimal inhibitory concentration(MIC), C. parapsitosis A. 7330: RPMI-1640, 35° C., no growth observed
Experimental: as §1, §2, §3, §4, §5, §6

[10] = test system: Torulopsis glabrata B. 16205; conditions: 4 to 48 hours; for Minimal inhibitory concentration (MIC): T. glabrata B. 16205, RPMI-1640, 35° C.; for Minimal inhibitory concentration(MIC), T. glabrata B. 16205: RPMI-1640, 35° C., no growth observed
Experimental: as §1, §2, §3, §4, §5, §6

[11] = test system: Candida tropicalis A. 13803; conditions: 4 to 48 hours; for Minimal inhibitory concentration (MIC): C. tropicalis A. 13803, RPMI-1640, 35° C.; for Minimal inhibitory concentration(MIC), C. tropicalis A. 13803: RPMI-1640, 35° C., no growth observed
Experimental: as §1, §2, §3, §4, §5, §6

[12] = test system: Candida albicans C1-2; conditions: 4 to 48 hours; for Minimal inhibitory concentration (MIC): C. albicans C1-2, RPMI-1640, 35° C.; for Minimal inhibitory concentration(MIC), C. albicans C1-2: RPMI-1640, 35° C., no growth observed
Experimental: as §1, §2, §3, §4, §5, §6

[13] = test system: Cryptococcus neoformans IFM. 40092; conditions: 4 to 48 hours; for Minimal inhibitory concentration (MIC): Cry. neoformans IFM. 40092, RPMI-1640, 35° C.; for Minimal inhibitory concentration(MIC), Cry. neoformans IFM. 40092: RPMI-1640, 35° C., no growth observed
Experimental: as §1, §2, §3, §4, §5, §6

[14] = test system: Candida krusei K. 11655; conditions: 4 to 48 hours; for Minimal inhibitory concentration (MIC): C. krusei K. 11655, RPMI-1640, 35° C.; for Minimal inhibitory concentration(MIC), C. krusei K. 11655: RPMI-1640, 35° C., no growth observed
Experimental: as §1, §2, §3, §4, §5, §6

[15] = test system: Cryptococcus neoformans B. 42419; conditions: 4 to 48 hours; for Minimal inhibitory concentration (MIC): Cry. neoformans B. 42419, RPMI-1640, 35° C.; for Minimal inhibitory concentration(MIC), Cry. neoformans B. 42419: RPMI-1640, 35° C., no growth observed
Experimental: as §1, §2, §3, §4, §5, §6

| Minimal inhibitory concentration (MIC) [1] [µg/mL] | Minimal inhibitory concentration (MIC) [2] [µg/mL] | Minimal inhibitory concentration (MIC) [3] [µg/mL] | Minimal inhibitory concentration (MIC) [4] [µg/mL] | Minimal inhibitory concentration (MIC) [5] [µg/mL] | Minimal inhibitory concentration (MIC) [6] [µg/mL] | Minimal inhibitory concentration (MIC) [7] | Minimal inhibitory concentration (MIC) [8] [µg/mL] | Minimal inhibitory concentration (MIC) [9] [µg/mL] | Minimal inhibitory concentration (MIC) [10] [µg/mL] | Minimal inhibitory concentration (MIC) [11] [µg/mL] | Minimal inhibitory concentration (MIC) [12] [µg/mL] | Minimal inhibitory concentration (MIC) [13] | Minimal inhibitory concentration (MIC) [14] [µg/mL] | Minimal inhibitory concentration (MIC) [15] [µg/mL] | SMILES | other results |
| --- | --- | --- | --- | --- | --- | --- | --- | --- | --- | --- | --- | --- | --- | --- | --- | --- |
| >100 | 50.0 | 12.5 | 25.0 | 0.78 | 0.78 | 3.13 µg/mL | 12.5 | >100 | 3.13 | 100 | 12.5 | 0.20 µg/mL | 100 | 0.78 | FC(OCC1COC(Cn2ccnc2)(c2ccc(F)cc2F)O1)=C(c1ccc2c(c1)OCO2)C(F)(F)F (mixture of isomers) [Ex. 62] |  |
| 6.25 (≈ 12.9 µM) | 3.13 (≈ 6.47 µM) | 6.25 (≈ 12.9 µM) | 6.25 (≈ 12.9 µM) | 0.39 (≈ 0.806 µM) | 0.78 (≈ 1.61 µM) | 0.78 µg/mL (≈ 1.61 µM) | 1.56 (≈ 3.22 µM) | 12.5 (≈ 25.8 µM) | 6.25 (≈ 12.9 µM) | 12.5 (≈ 25.8 µM) | 12.5 (≈ 25.8 µM) | 0.39 µg/mL (≈ 0.806 µM) | 6.25 (≈ 12.9 µM) | 0.78 (≈ 1.61 µM) | FC(=Cc1ccc(Cl)cc1)OCC1COC(Cn2ccnc2)(c2ccc(Cl)cc2Cl)O1 (stereo not drawn) [Ex. 14] |  |
| 6.25 | 12.5 | 25.0 | 1.56 | 0.20 | 0.78 | ≦0.10 μg/ml | 0.39 | 25.0 | 12.5 | 50.0 | 25.0 | ≦0.10 μg/ml | 25.0 | 0.78 | FC(=Cc1ccc(F)cc1)OCC1COC(Cn2ccnc2)(c2ccc(F)cc2F)O1 (mixture of isomers) [Ex. 49] |  |
| 100 | 6.25 | 25.0 | 12.5 | 0.39 | 1.56 | 1.56 µg/mL | 6.25 | 12.5 | 6.25 | 50.0 | 25.0 | 0.39 µg/mL | 12.5 | 1.56 | CC(C)Oc1cccc(C=C(F)OCC2COC(Cn3ccnc3)(c3ccc(F)cc3F)O2)c1 (mixture of isomers) [Ex. 45] |  |
|  |  |  |  |  |  |  |  |  |  |  |  |  |  |  | FC(=C(c1ccc(Cl)cc1)C(F)(F)F)N1CCN(c2ccc(OCC3COC(Cn4ccnc4)(c4ccc(Cl)cc4Cl)O3)cc2)CC1 (mixture of isomers) [Ex. 134] | Minimal inhibitory concentration(MIC), A. niger A. 16404 [1]: >100 µg/mL; Minimal inhibitory concentration(MIC), C. pseudotropicalis K. 11658 [2]: 1.56 µg/mL; Minimal inhibitory concentration(MIC), C. albicans A. 10231 [3]: >100 µg/mL; Minimal inhibitory concentration(MIC), A furnigatus B. 19119 [4]: >100 µg/mL; Minimal inhibitory concentration(MIC), C. albicans IFO. 1385 [5]: 1.56 µg/mL; Minimal inhibitory concentration(MIC), Cry. neoformans A. 34144 [6]: 0.39 µg/mL; Minimal inhibitory concentration(MIC), T. mentagrophytes B. 32663 [7]: 1.56 µg/mL; Minimal inhibitory concentration(MIC), T. mentagrophytes A. 9129 [8]: 6.25 µg/mL; Minimal inhibitory concentration(MIC), C. parapsitosis A. 7330 [9]: 3.13 µg/mL; Minimal inhibitory concentration(MIC), T. glabrata B. 16205 [10]: >100 µg/mL; Minimal inhibitory concentration(MIC), C. tropicalis A. 13803 [11]: >100 µg/mL; Minimal inhibitory concentration(MIC), C. albicans C1-2 [12]: >100 µg/mL; Minimal inhibitory concentration(MIC), Cry. neoformans IFM. 40092 [13]: 0.20 µg/mL; Minimal inhibitory concentration(MIC), C. krusei K. 11655 [14]: 1.56 µg/mL; Minimal inhibitory concentration(MIC), Cry. neoformans B. 42419 [15]: 0.78 µg/mL |
|  |  |  |  |  |  |  |  |  |  |  |  |  |  |  | FC(OCC1COC(Cn2cncn2)(c2ccc(Cl)cc2Cl)O1)=C(c1ccc(F)cc1)C(F)(F)F (mixture of isomers) [Ex. 87] | Minimal inhibitory concentration(MIC), A. niger A. 16404 [1]: >100 µg/mL; Minimal inhibitory concentration(MIC), C. pseudotropicalis K. 11658 [2]: >100 µg/mL; Minimal inhibitory concentration(MIC), C. albicans A. 10231 [3]: >100 µg/mL; Minimal inhibitory concentration(MIC), A furnigatus B. 19119 [4]: >100 µg/mL; Minimal inhibitory concentration(MIC), C. albicans IFO. 1385 [5]: 6.25 µg/mL; Minimal inhibitory concentration(MIC), Cry. neoformans A. 34144 [6]: 1.56 µg/mL; Minimal inhibitory concentration(MIC), T. mentagrophytes B. 32663 [7]: >100 µg/mL; Minimal inhibitory concentration(MIC), T. mentagrophytes A. 9129 [8]: >100 µg/mL; Minimal inhibitory concentration(MIC), C. parapsitosis A. 7330 [9]: >100 µg/mL; Minimal inhibitory concentration(MIC), T. glabrata B. 16205 [10]: >100 µg/mL; Minimal inhibitory concentration(MIC), C. tropicalis A. 13803 [11]: >100 µg/mL; Minimal inhibitory concentration(MIC), C. albicans C1-2 [12]: >100 µg/mL; Minimal inhibitory concentration(MIC), Cry. neoformans IFM. 40092 [13]: 0.78 µg/mL; Minimal inhibitory concentration(MIC), C. krusei K. 11655 [14]: >100 µg/mL; Minimal inhibitory concentration(MIC), Cry. neoformans B. 42419 [15]: 1.56 µg/mL |
| 3.13 (≈ 6.47 µM) | 1.56 (≈ 3.22 µM) | 6.25 (≈ 12.9 µM) | 1.56 (≈ 3.22 µM) | 0.39 (≈ 0.806 µM) | 0.39 (≈ 0.806 µM) | ≦0.10 μg/ml | 0.78 (≈ 1.61 µM) | 50.0 (≈ 103 µM) | 6.25 (≈ 12.9 µM) | 50.0 (≈ 103 µM) | 3.13 (≈ 6.47 µM) | ≦0.10 μg/ml | 25.0 (≈ 51.7 µM) | 0.39 (≈ 0.806 µM) | FC(=Cc1cccc(Cl)c1)OCC1COC(Cn2ccnc2)(c2ccc(Cl)cc2Cl)O1 (stereo not drawn) [Ex. 13] |  |
